# From US10820591B2, “Substituted sulfonyl amides for controlling animal pests” (Bayer Aktiengesellschaft, priority 2016, dated 2020)
# Tested on: Meloidogyne incognita
# Assay: Meloidogyne incognita test (sand, lettuce, gall formation)
# Assay type: in vivo
# Conditions: Meloidogyne incognita, 336 h, 4 ppm, after 14 days; read-out: nematicidal efficacy (formation of galls)
# Method in brief: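 Gall counts on lettuce roots were scored after 14 days in sand inoculated with root-knot nematode eggs/larvae plus compound diluted in water. Values run from 0% (galls as in untreated plants) to 100% (gall-free).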
row,SMILES,pest or weed control at 4 ppm [%]
1,CCOc1ccc(Cl)c(S(=O)(=O)NC(=O)c2cn(-c3c(F)cccc3F)cn2)c1 [I-356],90
2,CC(C)Oc1ccc(Cl)c(S(=O)(=O)NC(=O)c2cn(-c3c(F)cccc3F)cn2)c1 [I-357],90

# Same assay, conditions: Meloidogyne incognita, 336 h, 20 ppm, after 14 days; read-out: nematicidal efficacy (formation of galls)
row,SMILES,pest or weed control at 20 ppm [%]
1,CCOc1ccc(Cl)c(S(=O)(=O)NC(=O)c2cn(-c3cc(Cl)cc(C(F)(F)F)c3)cn2)c1 [I-337],100
2,COc1ccc(F)c(S(=O)(=O)NC(=O)c2cn(-c3cc(F)cc(Cl)c3)cn2)c1 [I-338],100
3,COc1ccc(Br)c(S(=O)(=O)NC(=O)c2cn(-c3cc(F)cc(Cl)c3)cn2)c1 [I-339],100
4,CCOc1ccc(Cl)c(S(=O)(=O)NC(=O)c2cn(-c3cc(F)cc(Cl)c3)cn2)c1 [I-340],100
5,CC(C)Oc1ccc(Cl)c(S(=O)(=O)NC(=O)c2cn(-c3cc(F)cc(Cl)c3)cn2)c1 [I-341],100
6,Cc1ccc(C)c(S(=O)(=O)NC(=O)c2cn(-c3cc(F)cc(Cl)c3)cn2)c1 [I-342],90
7,O=C(NS(=O)(=O)c1cc(Cn2cccn2)ccc1Cl)c1cn(-c2cc(F)cc(Cl)c2)cn1 [I-343],90
8,CC(C)Oc1ccc(Cl)c(S(=O)(=O)NC(=O)c2cn(-c3cc(Cl)cc(C(F)(F)F)c3)cn2)c1 [I-344],90
9,Cc1ccc(C)c(S(=O)(=O)NC(=O)c2cn(-c3cc(Cl)cc(C(F)(F)F)c3)cn2)c1 [I-345],100
10,COc1ccc(F)c(S(=O)(=O)NC(=O)c2cn(-c3cc(Cl)cc(Cl)c3)cn2)c1 [I-347],100
11,COc1ccc(Br)c(S(=O)(=O)NC(=O)c2cn(-c3cc(Cl)cc(Cl)c3)cn2)c1 [I-348],100
12,CCOc1ccc(Cl)c(S(=O)(=O)NC(=O)c2cn(-c3cc(Cl)cc(Cl)c3)cn2)c1 [I-349],100
13,CC(C)Oc1ccc(Cl)c(S(=O)(=O)NC(=O)c2cn(-c3cc(Cl)cc(Cl)c3)cn2)c1 [I-350],100
14,Cc1ccc(C)c(S(=O)(=O)NC(=O)c2cn(-c3cc(Cl)cc(Cl)c3)cn2)c1 [I-351],100
15,COc1ccc(F)c(S(=O)(=O)NC(=O)c2cn(-c3cc(F)cc(C(F)(F)F)c3)cn2)c1 [I-352],100
16,COc1ccc(Br)c(S(=O)(=O)NC(=O)c2cn(-c3cc(F)cc(C(F)(F)F)c3)cn2)c1 [I-353],100
17,CC(C)Oc1ccc(Cl)c(S(=O)(=O)NC(=O)c2cn(-c3cc(F)cc(C(F)(F)F)c3)cn2)c1 [I-354],100
18,Cc1ccc(C)c(S(=O)(=O)NC(=O)c2cn(-c3cc(F)cc(C(F)(F)F)c3)cn2)c1 [I-355],100
19,Cc1ccc(C)c(S(=O)(=O)NC(=O)c2cn(-c3c(F)cccc3F)cn2)c1 [I-358],100
20,COc1ccc(Cl)c(S(=O)(=O)NC(=O)c2cn(-c3c(F)cccc3F)cn2)c1 [I-359],90
21,COc1ccc(F)c(S(=O)(=O)NC(=O)c2cn(-c3c(F)cccc3F)cn2)c1 [I-360],90
22,COc1ccc(Br)c(S(=O)(=O)NC(=O)c2cn(-c3c(F)cccc3F)cn2)c1 [I-361],90
23,Cc1nc(C(=O)NS(=O)(=O)c2c(Cl)cccc2Cl)cn1-c1c(F)cccc1F [I-362],90
24,COc1ccc(Cl)c(S(=O)(=O)NC(=O)c2cn(-c3c(F)cccc3F)c(C)n2)c1 [I-363],90
25,CCOc1ccc(Cl)c(S(=O)(=O)NC(=O)c2cn(-c3c(F)cccc3F)c(C)n2)c1 [I-364],90

row,SMILES,pest or weed control at 20 ppm [%]
1,Cc1nc(C(=O)NS(=O)(=O)c2cc(Cl)ccc2Cl)cn1-c1c(F)cccc1F [I-365],100
2,Cc1nc(C(=O)NS(=O)(=O)c2cc(OC(C)C)ccc2Cl)cn1-c1cc(Cl)cc(Cl)c1 [I-366],100
3,COc1ccc(F)c(S(=O)(=O)NC(=O)c2cn(-c3cc(Cl)cc(Cl)c3)c(C)n2)c1 [I-367],100
4,COc1ccc(Br)c(S(=O)(=O)NC(=O)c2cn(-c3cc(Cl)cc(Cl)c3)c(C)n2)c1 [I-368],90
5,COc1ccc(F)c(S(=O)(=O)NC(=O)c2cn(-c3cc(F)cc(Cl)c3)c(C)n2)c1 [I-369],100
6,COc1ccc(Br)c(S(=O)(=O)NC(=O)c2cn(-c3cc(F)cc(Cl)c3)c(C)n2)c1 [I-370],70
7,COc1ccc(F)c(S(=O)(=O)NC(=O)c2cn(-c3cc(F)cc(F)c3)c(C)n2)c1 [I-371],90
8,CC(=O)c1ccc(Cl)c(S(=O)(=O)NC(=O)c2cn(-c3cc(Cl)cc(Cl)c3)c(C)n2)c1 [I-372],100
9,CSc1cccc(Cl)c1S(=O)(=O)NC(=O)c1cn(-c2cc(Cl)cc(Cl)c2)c(C)n1 [I-374],100
10,CCSc1cccc(Cl)c1S(=O)(=O)NC(=O)c1cn(-c2cc(Cl)cc(Cl)c2)c(C)n1 [I-375],100
11,Cc1nc(C(=O)NS(=O)(=O)c2c(Cl)cccc2SC(C)C)cn1-c1cc(Cl)cc(Cl)c1 [I-376],90
12,Cc1nc(C(=O)NS(=O)(=O)c2c(F)cccc2NC(C)C)cn1-c1cc(Cl)cc(Cl)c1 [I-377],90
13,Cc1nc(C(=O)NS(=O)(=O)c2c(F)cccc2Cl)cn1-c1cc(Cl)cc(Cl)c1 [I-378],100
14,Cc1nc(C(=O)NS(=O)(=O)c2c(F)cccc2NC2CC2)cn1-c1cc(Cl)cc(Cl)c1 [I-379],100
15,Cc1nc(C(=O)NS(=O)(=O)c2c(F)cccc2NC2CC2)cn1-c1cc(F)cc(Cl)c1 [I-380],100
16,Cc1nc(C(=O)NS(=O)(=O)c2c(F)cccc2NC(C)C)cn1-c1cc(F)cc(Cl)c1 [I-381],100
17,CSc1cccc(Cl)c1S(=O)(=O)NC(=O)c1cn(-c2cc(F)cc(Cl)c2)c(C)n1 [I-382],100
18,CCSc1cccc(Cl)c1S(=O)(=O)NC(=O)c1cn(-c2cc(F)cc(Cl)c2)c(C)n1 [I-383],100
19,Cc1nc(C(=O)NS(=O)(=O)c2c(Cl)cccc2SC(C)C)cn1-c1cc(F)cc(Cl)c1 [I-384],100
20,CSc1cccc(Cl)c1S(=O)(=O)NC(=O)c1cn(-c2cc(F)cc(F)c2)c(C)n1 [I-386],100
21,Cc1nc(C(=O)NS(=O)(=O)c2c(Cl)cccc2SC(C)C)cn1-c1cc(F)cc(F)c1 [I-388],100
22,Cc1nc(C(=O)NS(=O)(=O)c2c(F)cccc2NC2CC2)cn1-c1cc(F)cc(F)c1 [I-389],100
23,CSc1cccc(Cl)c1S(=O)(=O)NC(=O)c1cn(-c2cc(Cl)cc(Cl)c2)cn1 [I-390],100
24,O=C(NS(=O)(=O)c1c(F)cccc1NC1CC1)c1cn(-c2cc(Cl)cc(Cl)c2)cn1 [I-393],100
25,CCc1nc(C(=O)NS(=O)(=O)c2cc(OC)ccc2Cl)cn1-c1cc(F)cc(F)c1 [I-394],100

row,SMILES,pest or weed control at 20 ppm [%]
1,COc1ccc(Cl)c(S(=O)(=O)NC(=O)c2cn(-c3cc(F)cc(F)c3)c(C(C)C)n2)c1 [I-395],90
2,Cc1nc(C(=O)NS(=O)(=O)c2c(F)cccc2Cl)cn1-c1cc(F)cc(Cl)c1 [I-396],90
3,Cc1nc(C(=O)NS(=O)(=O)c2c(F)cccc2Cl)cn1-c1cc(F)cc(F)c1 [I-397],70
4,CC(C)Sc1cccc(Cl)c1S(=O)(=O)NC(=O)c1cn(-c2cc(Cl)cc(Cl)c2)cn1 [I-398],90
5,Cc1nc(C(=O)NS(=O)(=O)c2c(F)cccc2Cl)cn1-c1cc(Cl)cc(C(F)(F)F)c1 [I-399],90
6,Cc1nc(C(=O)NS(=O)(=O)c2c(F)cccc2Cl)cn1-c1cc(F)cc(C(F)(F)F)c1 [I-400],90
7,CCc1nc(C(=O)NS(=O)(=O)c2cc(OC)ccc2Cl)cn1-c1cc(Cl)cc(Cl)c1 [I-402],90
8,COc1ccc(Cl)c(S(=O)(=O)NC(=O)c2cn(-c3cc(Cl)cc(Cl)c3)c(C(C)C)n2)c1 [I-403],90
9,CCc1nc(C(=O)NS(=O)(=O)c2cc(OC)ccc2Cl)cn1-c1cc(F)cc(C(F)(F)F)c1 [I-404],90
10,COc1ccc(Cl)c(S(=O)(=O)NC(=O)c2cn(-c3cc(F)cc(C(F)(F)F)c3)c(C(C)C)n2)c1 [I-405],100
11,CCc1nc(C(=O)NS(=O)(=O)c2cc(OC)ccc2Cl)cn1-c1cc(F)cc(Cl)c1 [I-406],100
12,CCc1nc(C(=O)NS(=O)(=O)c2cc(OC)ccc2Cl)cn1-c1cc(Cl)cc(C(F)(F)F)c1 [I-407],100
13,COc1ccc(Cl)c(S(=O)(=O)NC(=O)c2cn(-c3cc(F)cc(Cl)c3)c(C(C)C)n2)c1 [I-408],100
14,Cc1nc(C(=O)NS(=O)(=O)C(C)C)cn1-c1cc(Cl)cc(Cl)c1 [I-409],100
15,COc1ccc(S(=O)(=O)NC(=O)c2cn(-c3cc(F)cc(F)c3)c(C)n2)cc1 [I-410],100
16,COc1ccc(S(=O)(=O)NC(=O)c2cn(-c3cc(Cl)cc(Cl)c3)c(C)n2)cc1 [I-411],100
17,COc1ccc(Cl)c(S(=O)(=O)NC(=O)c2nc(C)n(-c3cc(Cl)cc(Cl)c3)c2F)c1 [I-413],100
18,O=C(NS(=O)(=O)c1ccccc1)c1ncn(-c2ccc(Cl)cc2)c1Cl [I-414],100
19,COc1ccc(S(=O)(=O)NC(=O)c2ncn(-c3ccc(Cl)cc3)c2Cl)cc1 [I-415],90
20,O=C(NS(=O)(=O)c1ccccc1Cl)c1ncn(-c2ccc(Cl)cc2)c1Cl [I-416],100
21,O=C(NS(=O)(=O)c1cccc(Cl)c1)c1ncn(-c2ccc(Cl)cc2)c1Cl [I-417],100
22,O=C(NS(=O)(=O)c1ccc(Cl)cc1)c1ncn(-c2ccc(Cl)cc2)c1Cl [I-418],100
23,COc1cccc(S(=O)(=O)NC(=O)c2ncn(-c3ccc(Cl)cc3)c2Cl)c1 [I-419],100
